The values that follow come from patent publication US20220257599A1, “METHODS USEFUL IN TREATING CANCERS HARBORING A KRAS OR HRAS MUTATION OR AMPLIFICATION” (Memorial Sloan Kettering Cancer Center, priority 2019, published 2022).

In series [1] the test system is iKRas cells. Put plainly: Intracellular endomembrane lipid nanosensor (reporter) assay, near-infrared hyperspectral microscopy. The class given is cell-based, mouse. As to conditions: for attenuation of lipid reporter response (lipid dysregulation) in iKRas cells: 50 nM during the 24 h induction period, order darapladib>rilapladib≈ML256>AA39-2; for lipid nanosensor response in iKRas relative to vector: pathway inhibitors, 500 nM, 24 h treated cultures. As for the experimental part:
Hyperspectral Microscopy. For lipid reporter imaging experiments, cells were plated on 35 mm glass bottom dishes (MatTek Corp. P35G-1.5-10-C) so that around 0.5-0.8E6 cells were present on assay day. 24 h prior to assay, cells were briefly rinsed with fresh media and cultured as described. On the day of the assay, test media was removed to a sterile Eppendorf, spun in a mini-fuge to pellet cellular debris, and stored at 37° C. Attached cells were briefly rinsed with Pulse media (serum-free complete medium), then exposed to nano-reporter (0.2 μg/mL in Pulse media) for 30 minutes. After exposure, excess nano-reporter was removed by rinsing in complete medium and the stored test media was re-added to the dish for the 5-h incubation period. Near-infrared hyperspectral microscopy^87 was performed on live attached cells to obtain fluorescence emission maps from endomembrane vesicles.^88 Briefly, a 730 nm continuous wave diode laser was pumped through fibers to a 100× oil objective to excite the fluorescent reporters inside attached cells. Collected emission was stored as a hyperspectral imaging cube of encoded wavelengths rectified between 1100 and 1200 nm. The center wavelength for each pixel in the cube was obtained by fitting a Lorentzian function in MATLAB. The center wavelength of the entire population of pixels in each cube, representing a 100× magnified imaging field, was fit with a Gaussian function in OriginPro 9.0. The resulting fit center wavelength values are reported.
To assess lipid dysregulation in live cells, the lipid nanosensor was introduced into the culture medium of RAS- or vector-transformed cell lines. Near-infrared hyperspectral microscopy was utilized to acquire the fluorescence spectra of the nanosensor spatially within iKRas, iHRas, eKRas, vector control cells, and MEFs harboring mutations in the parallel PI3K pathway. The data were fitted to determine the center wavelength of the nanosensor emission band, which was then mapped back over the brightfield images of the cells and plotted in a histogram. Using this method, the average sensor emission wavelength 24 h and 72 h after oncogenic RAS induction was measured.
Next measured was whether this intracellular reporter response was sensitive to sPLA2-mediated generation of lysophospholipids and related lipid species. Lipid accumulation was measured using the nanosensor 24 h after treating the cells with an array of PLA2 inhibitors.

For series [2], the system named is vector control cells. In words: Proliferation assay (attached cell number). As to conditions: increasing lipid concentrations spiked into culture medium; lysoPC effect near its CMC, cPAF at sub-critical and critical micelle concentrations. It is filed as cell-based, mouse. As for the experimental part: (§1) Proliferation Assays. To assay proliferation, 6E4 cells/well were plated in 6-well plates (ThermoFisher 140675) with complete medium to generate triplicate wells, per experimental condition, for Day 0 through Day 3/4. 6-8 h after seeding cells, wells were briefly rinsed with fresh medium and then cultured with the appropriately supplemented test medium. The Day 0 plate was counted at this time. Plates were counted at 24-h intervals. Attached and spread MEF's are >95% viable,^84 as confirmed by a lack of trypan blue staining or positive western blot for cleaved caspase 7 or PARP (data not shown). To count attached cells, media was aspirated from each well then rinsed, using manual agitation, twice in room temperature (RT) 1×HBSS (w/o Ca/Mg++). Attached cells were trypsinized with 1 mL TrypLE. An imaging cytometer (Thermo T10796; factory default settings) was loaded with chamber slides (ThermoFisher T10794) containing 24 μL of the trypsinized cell suspension. 18 fields were imaged; the cytometer output was given in cells/mL. […] An upper gating threshold was set at 34 μm to include size-doubling of the measured 17 μm average.
(§2) As sPLA2 enzyme isoforms have been described as both tumor suppressors and tumor promoters,^48, 49, 50, 51, 52, 53 iKRas cells were interrogated using two representative lipids—a group 7 sPLA2 substrate, and a product. First, the vector control cells were incubated with increasing concentrations of 16:0 lysoPC, a group 7 sPLA2 product, and 16:0 methylcarbamyl PAF (cPAF), a substrate. […] Therefore, in the vector control cells, intracellular accumulation of the group 7 sPLA2 product affected proliferation to a greater extent than the enzyme substrate. […] In addition, eKRas cells were much more sensitive to the substrate lipid absent significant RAS-related damage or group 7 activity.

For series [3], the system named is iKRas cells. In words: Proliferation assay (attached cell number). It is filed as cell-based, mouse. As to conditions: critical micelle concentrations, 10 μM of each lipid. As for the experimental part: as §1, §2
In series [4] the test system is eKRas cells. In words: Proliferation assay (attached cell number). It is filed as cell-based, mouse. As to conditions: critical micelle concentrations, 10 μM of each lipid. Here is the method:
as §1, §2

Series [5] has as its system PAF receptor (PAF-R). Put plainly: Immunoblot for the PAF receptor. The class given is cell-based, mouse. As to conditions: vector cells, 24 h exposure to 10 μM lipid. On the technique in general: In western blotting, separated proteins are transferred to a membrane and probed.
Series [6] has as its system phospho-ERK and p21^waf1/cip1. In words: Immunoblot of vector/iKRas cell lysates. It is filed as cell-based, mouse. As to conditions: vector and iKRas cells, 24 h exposure to 10 μM lipid.
For series [7] the following is noted: depending on the cell type and downstream marker used; read-out: reported EC50; cited from earlier work.
Series [8] relates to syngeneic KrasG12D/+; Trp53−/− (KP) transplant model of non-small cell lung cancer. Put plainly: In vivo survival study. Set-up: species or system mouse. Here is the method: In vivo survival study. To generate the syngeneic KP transplant lung cancer model, a cell line derived from a KrasG12D/+; Trp53−/−(KP) GEMM lung tumor was infected with a retroviral luciferase (Luc)-GFP construct, and 5000 KP tumor cells resuspended in 400 μL of PBS were tail vein injected into 7 week old Female C57BL/6 mice.^90 Mice were randomized into various study cohorts before treatment with vehicle or darapladib. Treatments were administered by oral gavage once per day, Monday through Friday. […] Bioluminescence positive mice remained in the study while bioluminescence negative mice were euthanized, and their lungs were harvested for histology. Tissues were rinsed and fixed in 4° C. buffered 4% paraformaldehyde for 24-48 hours and moved to 4° C. 70% ethanol for long term storage, embedding, sectioning, and staining (H&E, anti-GFP primary antibody, anti-Ki-67 primary antibody). […] Tissues negative for histological dysplasia were excluded from final study analysis; tissues positive for histological dysplasia were kept in the final study analysis. Each cohort's N value was adjusted to reflect histology results before final analysis. […]
The inventors next assessed whether group 7 inhibition would impact the development of a RAS-harboring murine cancer model. […]

The conditions of series [9]: cited from earlier work.
Series [10] has as its system RAW 264.7 murine macrophages. In words: Cell viability after darapladib treatment (CellTiter-Glo). As to conditions: 48 h incubation. A general note: Cellular ATP, detected with luciferase, serves as a proxy for viable cell number.
Method: (§3) 5,000 cells/well of doxycycline induced iKRas or target mouse/human cells were seeded in 96-well plates 1 day prior to the start of treatment. On the day of the experiment, increasing concentrations of darapladib were added in triplicate to the conditioned media. After incubation for 48 h, the cell viability was assessed using the CellTiter-Glo® luminescent assay (Promega G9681). Prior to use, reconstituted kit reagent was equilibrated to room temperature. To initiate cell lysis, 50 μL of reagent was added to each well. Plates were incubated for 10 minutes at room temperature with gentle mixing on an orbital shaker. Luminescence was measured using a Tecan Infinite M1000 Pro plate reader (Tecan Group Ltd.).
Series [11] deals with RAS harboring lines (iKRas cells and cell lines derived from lung, pancreas, and colorectal tumors). Described as above. As to conditions: 48 h incubation.
Method: as §3
Series [12] deals with eKRas versus wildtype SV40 MEFs. The description is as above. As to conditions: sigmoidal dose-response.
Method: as §3
For series [13], the system named is iKRas cells. In words: Lipidomics (LC-MS) after inhibitor treatment. As to conditions: iKRas cells treated with darapladib; especially lysoPC, also lysoPE, lysoPI, lysoPS.
Method: Lipidomics and Analysis. 100 mm plates were seeded, grown, and induced so that on the day of harvest dishes were 90-100% confluent. Culture medium was Phenol red-free. To harvest conditioned media, the full volume was moved to a glass vial on dry ice/alcohol slurry and a fresh cold PBS volume equal to ¼ of the collected volume was used to rinse the cells; this volume was collected and pooled. To harvest lysate, a separate dish of cells was washed three times with cold HBSS; on the last wash, liquid was aspirated, and the dish was placed onto the dry ice/alcohol slurry to freeze for 30 seconds. 1 mL of a 2:0.8 parts methanol:water mix (chilled to −80° C. and stored on dry ice) was added to the plate. The dish was immediately moved to wet ice and scrapped with a rubber policeman. Lysate was pooled in the bottom of the dish, and then transferred to a glass vial on dry ice until −80° C. storage. The lysate extract vials were briefly flushed with nitrogen gas. […] Quantitation used an MRM method under positive and negative electrospray modes. Raw data was reported as Mol %, or ng/mL of the lipid species normalized to the absolute total lipid abundance (ng/mL) detected by the mass spectrometer. Reported data is Mol % divided by the total adherent cell count from a parallel-treated plate, calculated as a Fold change versus control: (iKRas/Vector)-1.
Series [14] concerns vector line. In words: Intracellular endomembrane lipid nanosensor (reporter) assay, near-infrared hyperspectral microscopy. As to conditions: 24 h with 100 nM dexamethasone salt.
Method: For lipid reporter imaging experiments, cells were plated on 35 mm glass bottom dishes (MatTek Corp. P35G-1.5-10-C) so that around 0.5-0.8E6 cells were present on assay day. 24 h prior to assay, cells were briefly rinsed with fresh media and cultured as described. On the day of the assay, test media was removed to a sterile Eppendorf, spun in a mini-fuge to pellet cellular debris, and stored at 37° C. Attached cells were briefly rinsed with Pulse media (serum-free complete medium), then exposed to nano-reporter (0.2 μg/mL in Pulse media) for 30 minutes. After exposure, excess nano-reporter was removed by rinsing in complete medium and the stored test media was re-added to the dish for the 5-h incubation period. Near-infrared hyperspectral microscopy^87 was performed on live attached cells to obtain fluorescence emission maps from endomembrane vesicles.^88 Briefly, a 730 nm continuous wave diode laser was pumped through fibers to a 100× oil objective to excite the fluorescent reporters inside attached cells. Collected emission was stored as a hyperspectral imaging cube of encoded wavelengths rectified between 1100 and 1200 nm. The center wavelength for each pixel in the cube was obtained by fitting a Lorentzian function in MATLAB. […]
Setting [15] is: 20 nM during the 24 h induction period.

In the case of `O=C(N1CCCC1)n1ncc(-c2ccc(-c3ccccc3)cc2)n1` [AA39-2], the “attenuation of lipid reporter response (lipid dysregulation) in iKRas cells” value in series [1] is on record as “attenuated the reporter response”.

For the compound `O=C1O/C(=C/Br)CCC1c1cccc2ccccc12` (stereo not drawn) [BEL], in series [1] (75 nM during the 24 h induction period), the “attenuation of lipid reporter response in iKRas cells” value was “unable to attenuate the lipid reporter response”.

On to `Cn1nccc1Nc1nccc(-c2ccn([C@H](CO)c3ccc(Cl)c(F)c3)c(=O)c2)n1` [GDC-0994], for which the “lipid nanosensor response in iKRas relative to vector” value in [1] was “significantly diminished”.

`CCCCCCCCCCCCCCCCOCC(COCC(F)(F)F)OP(=O)(O)OC` (stereo not drawn) [MJ-33]: in series [1] (setting [15]), the “attenuation of lipid reporter response in iKRas cells” value is on record as “unable to attenuate the lipid reporter response”.

Regarding `Cc1cc(N2CCN(C(=O)Oc3ccc(-c4ccccc4)cn3)CC2)c2ccccc2n1` [ML256], the “attenuation of lipid reporter response (lipid dysregulation) in iKRas cells” value in series [1] is on record as “attenuated the reporter response”.

`N#Cc1c(Oc2ccc(F)c(NC(=O)Cc3cccc(C(F)(F)F)c3)c2)ccc2nc(NC(=O)C3CC3)sc12` [TAK-632]: in [1], the “lipid nanosensor response in iKRas relative to vector” value is “significantly diminished”.

For `CC(C)OC(=O)c1ccc(N2C(=O)C(Cl)=C(Cl)C2=O)cc1` [TSI-01], the “attenuation of lipid reporter response in iKRas cells” value in series [1] (1 μM during the 24 h induction period) is on record as “unable to attenuate the lipid reporter response”.

For `Cc1c(C)c2c(c(C)c1O)CC[C@@](C)(CCC[C@H](C)CCC[C@H](C)CCCC(C)C)O2` [Vitamin E, α-tocopherol], the “reporter response in iKRas cells” value in series [1] (20 μM ±-α-tocopherol during the 24 h induction period) was “abrogated”.

In the case of `CCCCCCCCCCCCCCCCOC[C@H](COP(=O)([O-])OCC[N+](C)(C)C)OC(=O)NC` [cPAF, 16:0 methylcarbamyl PAF], the “vector control cell proliferation” value in series [2] is reported as “mild stimulatory effect”. The “effect on iKRas cell proliferation” value in series [3] is “potent arresting effect”. The “effect on eKRas cell proliferation” value in [4] is “potent arresting effect”. Besides, in series [5], the PAF-R expression entry is given as “downregulated”. Besides, in series [6], the “phospho-ERK and p21^waf1/cip1 expression” value is on record as “increased”.

By EC50 is commonly meant the concentration needed to bring the measured effect to its halfway point. In the case of `CCN(CC)CCN(Cc1ccc(-c2ccc(C(F)(F)F)cc2)cc1)C(=O)Cn1c(SCc2ccc(F)cc2)nc(=O)c2c1CCC2` [darapladib], in series [7], the EC50 is 10 to 1000 nM. The “lung cancer-associated death and morbidity” value in series [8] (10 mg/kg daily oral gavage starting on Day 1 or Day 6, C57BL/6 mice) is recorded as “significant delay”. Besides, in series [8] (mouse, in vivo), the “survival in Kras^G12D/+/p53^−/− lung cancer model in mice” value was “prolonged survival”. Moreover, the safety in vivo entry in series [9] was “safe and apparently side-effect-free”. Further, the “cardiovascular clinical endpoint, Phase 3 trials” value in series [9] (in vivo) is “failing to meet its intended cardiovascular clinical endpoint”. Besides, the “attenuation of lipid reporter response (lipid dysregulation) in iKRas cells” value in series [1] is on record as “attenuated the reporter response”. Moreover, the “viability of RAW 264.7 control cell line” value in series [10] is listed as “largely unaffected”. Moreover, the “viability of RAS harboring lines” value in series [11] is recorded as “died at low micromolar concentrations”. Besides, in series [12], the “potency at killing eKRas versus wildtype cells” value is given as “twice as potent”. Moreover, in series [13], the “lysophospholipid levels (lipidomics)” value was “significant attenuation”.

As to `C[C@@H]1C[C@H]2[C@@H]3CCC4=CC(=O)C=C[C@]4(C)[C@@]3(F)[C@@H](O)C[C@]2(C)[C@@]1(O)C(=O)CO` [dexamethasone], the “reporter response in the vector line” value in series [14] is reported as “increased the reporter response”.

Turning to `CCCCCCCCCCCCCCCC(=O)OC[C@@H](O)COP(=O)([O-])OCC[N+](C)(C)C` [lysoPC, 16:0 lysoPC], in series [2], the “vector control cell proliferation” value is on record as “arrested”. Further, the “effect on iKRas cell proliferation” value in series [3] is on record as “negligible arresting effect or a reduced arresting effect”. Further, in series [4], the “effect on eKRas cell proliferation” value is given as “negligible arresting effect or a reduced arresting effect”. Besides, the “phospho-ERK and p21^waf1/cip1 expression” value in series [6] is given as “not”.

As to `COCCN1CCC(N(Cc2ccc(-c3ccc(C(F)(F)F)cc3)cc2)C(=O)Cn2c(SCc3cccc(F)c3F)cc(=O)c3ccccc32)CC1` [rilapladib], in series [1], the “attenuation of lipid reporter response (lipid dysregulation) in iKRas cells” value is “attenuated the reporter response”.

For `CCc1c(C(=O)C(N)=O)c2c(OCC(=O)O)cccc2n1Cc1ccccc1` [varespladib], the “attenuation of lipid reporter response in iKRas cells” value in series [1] (setting [15]) is reported as “unable to attenuate the lipid reporter response”.
